Test results from patent US20260062387A1, “SALT-INDUCIBLE KINASE INHIBITOR COMPOUND AND PHARMACEUTICAL COMPOSITION INCLUDING THE SAME” (MITSUBISHI TANABE PHARMA CORPORATION, priority 2023, published 2026).

Experiments:
Assay type in all cases: biochemical
GST-tagged SIK1 = GST-tagged SIK1 (Homo sapiens (Human), UniProt P57059); assay: SIK1 inhibition test (ADP-Glo Max Assay); conditions: enzyme 20 nM, AMARA Peptide 200 μM, ATP 1 mM, 2 hours room temperature
Procedure, shortened: (§1)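 GST-tagged human SIK1, SIK2 and SIK3 at 20 nM, 3 nM and 100 nM final in Tris pH 7.5 buffer, with AMARA peptide (200 μM for SIK1/SIK2, 100 μM for SIK3), 1 mM ATP and 5 mM MgCl2. Reaction ran 2 h at room temperature. ADP read by ADP-Glo Max luminescence, and IC50 fitted from 16 concentrations.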

GST-tagged SIK2 = GST-tagged SIK2 (Homo sapiens (Human), UniProt Q9H0K1); assay: SIK2 inhibition test (ADP-Glo Max Assay); conditions: enzyme 3 nM, AMARA Peptide 200 μM, ATP 1 mM, 2 hours room temperature
Sequence of GST-tagged SIK2 (Q9H0K1 whole entry): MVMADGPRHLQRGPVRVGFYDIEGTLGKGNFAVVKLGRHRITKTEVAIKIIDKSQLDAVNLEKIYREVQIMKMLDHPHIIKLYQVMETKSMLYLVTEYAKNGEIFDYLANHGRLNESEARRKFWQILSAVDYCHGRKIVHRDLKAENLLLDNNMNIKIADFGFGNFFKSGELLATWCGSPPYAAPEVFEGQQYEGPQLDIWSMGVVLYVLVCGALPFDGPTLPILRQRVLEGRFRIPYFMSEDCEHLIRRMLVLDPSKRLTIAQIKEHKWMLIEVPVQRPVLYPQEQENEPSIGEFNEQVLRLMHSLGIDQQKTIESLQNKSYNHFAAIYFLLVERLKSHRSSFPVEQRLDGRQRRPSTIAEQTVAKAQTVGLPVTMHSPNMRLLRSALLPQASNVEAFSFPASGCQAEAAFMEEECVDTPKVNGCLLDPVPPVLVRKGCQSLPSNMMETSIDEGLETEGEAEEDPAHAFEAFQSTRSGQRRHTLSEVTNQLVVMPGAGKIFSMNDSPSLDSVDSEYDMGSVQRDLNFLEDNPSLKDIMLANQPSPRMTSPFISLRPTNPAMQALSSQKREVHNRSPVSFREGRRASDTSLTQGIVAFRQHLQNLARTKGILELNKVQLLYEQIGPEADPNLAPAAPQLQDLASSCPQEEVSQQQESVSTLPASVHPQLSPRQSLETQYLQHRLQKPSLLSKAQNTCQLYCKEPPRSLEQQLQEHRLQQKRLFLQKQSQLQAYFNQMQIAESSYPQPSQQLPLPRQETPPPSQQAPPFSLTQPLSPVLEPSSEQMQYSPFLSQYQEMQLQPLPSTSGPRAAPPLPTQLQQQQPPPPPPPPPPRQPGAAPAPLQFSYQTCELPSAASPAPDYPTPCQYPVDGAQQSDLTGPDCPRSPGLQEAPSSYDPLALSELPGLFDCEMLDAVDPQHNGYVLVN
Procedure, shortened: as §1

GST-tagged SIK3 = GST-tagged SIK3 (Homo sapiens (Human), UniProt Q9Y2K2); assay: SIK3 inhibition test (ADP-Glo Max Assay); conditions: enzyme 100 nM, AMARA Peptide 100 μM, ATP 1 mM, 2 hours room temperature
Sequence of GST-tagged SIK3 (Q9Y2K2 whole entry): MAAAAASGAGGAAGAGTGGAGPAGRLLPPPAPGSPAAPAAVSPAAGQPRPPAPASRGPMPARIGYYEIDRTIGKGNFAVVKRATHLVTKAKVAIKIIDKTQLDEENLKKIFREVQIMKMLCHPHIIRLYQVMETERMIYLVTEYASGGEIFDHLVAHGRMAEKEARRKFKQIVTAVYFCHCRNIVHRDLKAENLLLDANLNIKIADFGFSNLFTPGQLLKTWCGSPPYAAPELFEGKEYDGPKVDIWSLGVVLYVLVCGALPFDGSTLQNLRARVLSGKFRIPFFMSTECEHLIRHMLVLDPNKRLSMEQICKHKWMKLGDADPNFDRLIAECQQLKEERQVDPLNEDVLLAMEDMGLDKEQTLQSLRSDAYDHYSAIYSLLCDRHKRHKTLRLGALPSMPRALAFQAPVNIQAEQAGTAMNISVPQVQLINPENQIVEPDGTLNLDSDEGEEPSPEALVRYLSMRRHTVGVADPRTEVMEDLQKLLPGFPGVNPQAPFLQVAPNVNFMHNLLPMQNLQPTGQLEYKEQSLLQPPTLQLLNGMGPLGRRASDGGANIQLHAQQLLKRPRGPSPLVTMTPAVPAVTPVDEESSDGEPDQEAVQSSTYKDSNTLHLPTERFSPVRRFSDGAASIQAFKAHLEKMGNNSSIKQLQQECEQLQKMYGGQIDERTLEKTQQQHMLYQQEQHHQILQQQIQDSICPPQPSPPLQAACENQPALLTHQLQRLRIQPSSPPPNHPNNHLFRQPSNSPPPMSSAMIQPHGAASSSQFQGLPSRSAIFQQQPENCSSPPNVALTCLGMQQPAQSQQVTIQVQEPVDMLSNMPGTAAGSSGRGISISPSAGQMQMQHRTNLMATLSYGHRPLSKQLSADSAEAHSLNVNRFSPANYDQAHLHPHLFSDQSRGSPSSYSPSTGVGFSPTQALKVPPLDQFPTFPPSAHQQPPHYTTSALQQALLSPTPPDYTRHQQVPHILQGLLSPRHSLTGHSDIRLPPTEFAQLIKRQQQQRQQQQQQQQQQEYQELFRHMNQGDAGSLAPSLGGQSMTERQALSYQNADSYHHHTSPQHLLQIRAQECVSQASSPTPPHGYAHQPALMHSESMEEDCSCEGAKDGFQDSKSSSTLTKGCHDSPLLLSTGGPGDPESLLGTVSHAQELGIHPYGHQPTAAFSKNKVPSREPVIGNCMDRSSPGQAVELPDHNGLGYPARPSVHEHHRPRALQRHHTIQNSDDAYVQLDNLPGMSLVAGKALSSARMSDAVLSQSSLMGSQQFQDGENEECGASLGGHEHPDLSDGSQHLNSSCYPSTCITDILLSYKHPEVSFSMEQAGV
Procedure, shortened: as §1

Sequence of GST-tagged SIK1 (P57059 whole entry): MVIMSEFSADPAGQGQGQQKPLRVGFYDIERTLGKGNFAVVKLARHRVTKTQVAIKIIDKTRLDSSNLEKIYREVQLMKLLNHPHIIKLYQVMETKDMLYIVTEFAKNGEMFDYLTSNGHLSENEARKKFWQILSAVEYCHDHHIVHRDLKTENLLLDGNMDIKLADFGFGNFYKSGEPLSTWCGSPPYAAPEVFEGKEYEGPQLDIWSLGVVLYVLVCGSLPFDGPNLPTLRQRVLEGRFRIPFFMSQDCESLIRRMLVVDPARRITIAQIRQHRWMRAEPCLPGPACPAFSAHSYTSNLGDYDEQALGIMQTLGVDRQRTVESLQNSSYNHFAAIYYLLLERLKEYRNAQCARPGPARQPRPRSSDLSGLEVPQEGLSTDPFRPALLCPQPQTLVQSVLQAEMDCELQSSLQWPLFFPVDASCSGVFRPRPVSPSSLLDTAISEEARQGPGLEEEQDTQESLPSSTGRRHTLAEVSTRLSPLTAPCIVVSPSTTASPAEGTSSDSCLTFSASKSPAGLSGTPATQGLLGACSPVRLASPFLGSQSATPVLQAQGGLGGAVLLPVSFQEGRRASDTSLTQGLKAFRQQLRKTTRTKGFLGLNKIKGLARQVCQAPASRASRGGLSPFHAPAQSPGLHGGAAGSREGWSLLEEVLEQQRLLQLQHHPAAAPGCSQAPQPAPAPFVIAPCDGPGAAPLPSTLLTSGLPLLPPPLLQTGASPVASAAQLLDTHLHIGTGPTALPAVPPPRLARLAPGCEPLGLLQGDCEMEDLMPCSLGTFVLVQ

Compound `CCn1cc(-c2cc(C#N)c3c(-c4cc(OC)c(C(=O)N[C@@H]5CC5(F)F)c(OC(F)F)c4)n(C)nc3c2)cn1` [Example 118, 4-[4-cyano-6-(1-ethylpyrazol-4-yl)-2-methylindazol-3-yl]-N-[(1R)-2,2-difluorocyclopropyl]-2-(difluoromethoxy)-6-methoxybenzamide] has an IC50 (GST-tagged SIK1) of 5.3 nM, an IC50 (GST-tagged SIK2) of 1 nM and an IC50 (GST-tagged SIK3) of 0.6 nM.

Work on `COc1cc(-c2c3c(C(F)F)cc(-c4cnn(CCC(C)(C)O)c4)cc3nn2C)cc(OC(F)F)c1C(=O)N[C@@H]1CC1(F)F` [Example 119] yielded an IC50 (GST-tagged SIK1) of 3.9 nM, an IC50 (GST-tagged SIK2) of 2.6 nM and an IC50 (GST-tagged SIK3) of 0.7 nM.

For `COc1cc(-c2c3c(C(F)F)cc(-c4cnn(CC[C@@H](C)O)c4)cc3nn2C)cc(OC(F)F)c1C(=O)N[C@@H]1CC1(F)F` [Example 120, N-[(1R)-2,2-difluorocyclopropyl]-2-(difluoromethoxy)-4-[4-(difluoromethyl)-6-[1-[(3R)-3-hydroxybutyl]pyrazol-4-yl]-2-methylindazol-3-yl]-6-methoxybenzamide], the IC50 (GST-tagged SIK1) was 7.8 nM, the IC50 (GST-tagged SIK2) was 3.5 nM and the IC50 (GST-tagged SIK3) was 0.7 nM.

For `COc1cc(-c2c3c(C(F)F)cc(-c4cnn(C[C@H]5C[C@@H](O)C5)c4)cc3nn2C)cc(OC(F)F)c1C(=O)N[C@@H]1CC1(F)F` [Example 121, N-[(1R)-2,2-difluorocyclopropyl]-2-(difluoromethoxy)-4-[4-(difluoromethyl)-6-[1-[(cis-3-hydroxycyclobutyl)methyl]pyrazol-4-yl]-2-methylindazol-3-yl]-6-methoxybenzamide], the IC50 (GST-tagged SIK1) was 9.5 nM, the IC50 (GST-tagged SIK2) was 4.8 nM and the IC50 (GST-tagged SIK3) was 1.1 nM.

`COc1cc(-c2c3c(C#N)cc(-c4cnn(CCC5(O)CCC5)c4)cc3nn2C)cc(OC(F)F)c1C(=O)NCC1(F)CC1` [Example 122, 4-[4-cyano-6-[1-[2-(1-hydroxycyclobutyl)ethyl]pyrazol-4-yl]-2-methylindazol-3-yl]-2-(difluoromethoxy)-N-[(1-fluorocyclopropyl)methyl]-6-methoxybenzamide] showed an IC50 (GST-tagged SIK1) of 15.8 nM, an IC50 (GST-tagged SIK2) of 7.9 nM and an IC50 (GST-tagged SIK3) of 4.4 nM.

For `COc1cc(-c2c3c(C#N)cc(-c4cnn(CCC5(O)CCC5)c4)cc3nn2C)cc(OC(F)F)c1C(=O)N[C@@H]1CC1(F)F` [Example 123, 4-[4-cyano-6-[1-[2-(1-hydroxycyclobutyl)ethyl]pyrazol-4-yl]-2-methylindazol-3-yl]-N-[(1R)-2,2-difluorocyclopropyl]-2-(difluoromethoxy)-6-methoxybenzamide], the IC50 (GST-tagged SIK1) was 4.4 nM, the IC50 (GST-tagged SIK2) was 1.7 nM and the IC50 (GST-tagged SIK3) was 0.6 nM.

`COc1cc(-c2c3c(C#N)cc(-c4cnn(C[C@H](O)C(F)(F)F)c4)cc3nn2C)cc(OC(F)F)c1C(=O)N[C@@H]1CC1(F)F` [Example 124, 4-[4-cyano-2-methyl-6-[1-[(2S)-3,3,3-trifluoro-2-hydroxypropyl]pyrazol-4-yl]indazol-3-yl]-N-[(1R)-2,2-difluorocyclopropyl]-2-(difluoromethoxy)-6-methoxybenzamide] showed an IC50 (GST-tagged SIK1) of 8 nM, an IC50 (GST-tagged SIK2) of 1.1 nM and an IC50 (GST-tagged SIK3) of 1.6 nM.

Work on `COc1cc(-c2c3c(C#N)cc(-c4cnn(C[C@H](C)O)c4)cc3nn2C)cc(OC(F)F)c1C(N)=O` [Example 125, 4-[4-cyano-6-[1-[(2S)-2-hydroxypropyl]pyrazol-4-yl]-2-methylindazol-3-yl]-2-(difluoromethoxy)-6-methoxybenzamide] yielded an IC50 (GST-tagged SIK1) of 11.5 nM, an IC50 (GST-tagged SIK2) of 1.8 nM and an IC50 (GST-tagged SIK3) of 2.9 nM.

`COc1cc(-c2c3c(C#N)cc(-c4cnn(C)c4)cc3nn2C)cc2c1C(=O)NCC2(C)C` [Example 129, 3-(8-methoxy-4,4-dimethyl-1-oxo-2,3-dihydroisoquinolin-6-yl)-2-methyl-6-(1-methylpyrazol-4-yl)indazol-4-carbonitrile] was tested, and the IC50 (GST-tagged SIK1) was 5.1 nM, the IC50 (GST-tagged SIK2) was 0.9 nM and the IC50 (GST-tagged SIK3) was 6.6 nM.

In the case of `COc1cc(-c2c3c(OC)cc(-c4cnn(C)c4)cc3nn2C)cc(OC(F)F)c1C(N)=O` [Example 130, 2-(difluoromethoxy)-6-methoxy-4-[4-methoxy-2-methyl-6-(1-methylpyrazol-4-yl)indazol-3-yl]benzamide], the IC50 (GST-tagged SIK1) is reported as 16.9 nM, the IC50 (GST-tagged SIK2) is reported as 2.1 nM and the IC50 (GST-tagged SIK3) is reported as 16.8 nM.

With `COc1cc(-c2c3c(OC(F)F)cc(-c4cnn(C)c4)cc3nn2C)cc(OC(F)F)c1C(N)=O` [Example 131, 2-(difluoromethoxy)-4-[4-(difluoromethoxy)-2-methyl-6-(1-methylpyrazol-4-yl)indazol-3-yl]-6-methoxybenzamide] the IC50 (GST-tagged SIK1) was 12.2 nM, the IC50 (GST-tagged SIK2) was 4.5 nM and the IC50 (GST-tagged SIK3) was 16.3 nM.

With `COc1cc(-c2c3c(C#N)cc(-c4cnn(C(C)C)c4)cc3nn2C)cc(OC(F)F)c1C(N)=O` [Example 132, 4-[4-cyano-2-methyl-6-(1-propan-2-ylpyrazol-4-yl)indazol-3-yl]-2-(difluoromethoxy)-6-methoxybenzamide] the IC50 (GST-tagged SIK1) was 16.1 nM, the IC50 (GST-tagged SIK2) was 4 nM and the IC50 (GST-tagged SIK3) was 5.8 nM.

Work on `COCCn1cc(-c2cc(C#N)c3c(-c4cc(OC)c(C(N)=O)c(OC(F)F)c4)n(C)nc3c2)cn1` [Example 133, 4-[4-cyano-6-[1-(2-methoxyethyl)pyrazol-4-yl]-2-methylindazol-3-yl]-2-(difluoromethoxy)-6-methoxybenzamide] yielded an IC50 (GST-tagged SIK1) of 13.6 nM, an IC50 (GST-tagged SIK2) of 2.1 nM and an IC50 (GST-tagged SIK3) of 4.9 nM.

Work on `COCCn1cc(-c2cc(C(F)F)c3c(-c4cc(OC)c(C(N)=O)c(OC(F)F)c4)n(C)nc3c2)cn1` [Example 134, 2-(difluoromethoxy)-4-[4-(difluoromethyl)-6-[1-(2-methoxyethyl)pyrazol-4-yl]-2-methylindazol-3-yl]-6-methoxybenzamide] yielded an IC50 (GST-tagged SIK1) of 13.6 nM, an IC50 (GST-tagged SIK2) of 3.3 nM and an IC50 (GST-tagged SIK3) of 5.7 nM.

For `COc1cc(-c2c3c(C#N)cc(-c4cnn(CC(C)C)c4)cc3nn2C)cc(OC(F)F)c1C(N)=O` [Example 135, 4-[4-cyano-2-methyl-6-[1-(2-methylpropyl)pyrazol-4-yl]indazol-3-yl]-2-(difluoromethoxy)-6-methoxybenzamide], the IC50 (GST-tagged SIK1) was 17.2 nM, the IC50 (GST-tagged SIK2) was 6.2 nM and the IC50 (GST-tagged SIK3) was 5.9 nM.

In the case of `CCOc1cc(-c2cnn(C)c2)cc2nn(C)c(-c3cc(OC)c(C(N)=O)c(OC(F)F)c3)c12` [Example 136, 2-(difluoromethoxy)-4-[4-ethoxy-2-methyl-6-(1-methylpyrazol-4-yl)indazol-3-yl]-6-methoxybenzamide], the IC50 (GST-tagged SIK1) is reported as 7.6 nM, the IC50 (GST-tagged SIK2) is reported as 3.4 nM and the IC50 (GST-tagged SIK3) is reported as 13.4 nM.

With `COc1cc(-c2c3c(C#N)cc(-c4cnn(CCC5(O)CCC5)c4)cc3nn2C)cc(OC(F)F)c1C(N)=O` [Example 137, 4-[4-cyano-6-[1-[2-(1-hydroxycyclobutyl)ethyl]pyrazol-4-yl]-2-methylindazol-3-yl]-2-(difluoromethoxy)-6-methoxybenzamide] the IC50 (GST-tagged SIK1) was 11.6 nM, the IC50 (GST-tagged SIK2) was 5.8 nM and the IC50 (GST-tagged SIK3) was 4.7 nM.

With `COc1cc(-c2c3c(C#N)cc(-c4cnn(CC5CC5)c4)cc3nn2C)cc(OC(F)F)c1C(N)=O` [Example 138, 4-[4-cyano-6-[1-(cyclopropylmethyl)pyrazol-4-yl]-2-methylindazol-3-yl]-2-(difluoromethoxy)-6-methoxybenzamide] the IC50 (GST-tagged SIK1) was 16.9 nM, the IC50 (GST-tagged SIK2) was 7.2 nM and the IC50 (GST-tagged SIK3) was 6.6 nM.

In the case of `CCn1cc(-c2cc(C#N)c3c(-c4cc(OC)c5c(c4)C(C)(C)CNC5=O)n(C)nc3c2)cn1` [Example 139, 6-(1-ethylpyrazol-4-yl)-3-(8-methoxy-4,4-dimethyl-1-oxo-2,3-dihydroisoquinolin-6-yl)-2-methylindazole-4-carbonitrile], the IC50 (GST-tagged SIK1) is reported as 9 nM, the IC50 (GST-tagged SIK2) is reported as 8.6 nM and the IC50 (GST-tagged SIK3) is reported as 12.8 nM.

Compound `CCCn1cc(-c2cc(C#N)c3c(-c4cc(OC)c5c(c4)C(C)(C)CNC5=O)n(C)nc3c2)cn1` [Example 140, 3-(8-methoxy-4,4-dimethyl-1-oxo-2,3-dihydroisoquinolin-6-yl)-2-methyl-6-(1-propylpyrazol-4-yl)indazol-4-carbonitrile] has an IC50 (GST-tagged SIK1) of 7.8 nM, an IC50 (GST-tagged SIK2) of 12.3 nM and an IC50 (GST-tagged SIK3) of 10.3 nM.

Work on `CCn1cc(-c2cc(C#N)c3c(-c4cc(OC)c(C(N)=O)c(OC(F)F)c4)n(C)nc3c2)cn1` [Example 141, 4-[4-cyano-6-(1-ethylpyrazol-4-yl)-2-methylindazol-3-yl]-2-(difluoromethoxy)-6-methoxybenzamide] yielded an IC50 (GST-tagged SIK1) of 17.6 nM, an IC50 (GST-tagged SIK2) of 2 nM and an IC50 (GST-tagged SIK3) of 2.7 nM.

In the case of `COc1cc(-c2c3c(C#N)cc(-c4cnn(CCC(C)(C)O)c4)cc3nn2C)cc(OC(F)F)c1C(N)=O` [Example 142], the IC50 (GST-tagged SIK1) is reported as 16.2 nM, the IC50 (GST-tagged SIK2) is reported as 1.9 nM and the IC50 (GST-tagged SIK3) is reported as 2.7 nM.

For `COCCn1cc(-c2cc(C#N)c3c(-c4cc(OC)c5c(c4)C(C)(C)CNC5=O)n(C)nc3c2)cn1` [Example 143, 3-(8-methoxy-4,4-dimethyl-1-oxo-2,3-dihydroisoquinolin-6-yl)-6-[1-(2-methoxyethyl)pyrazol-4-yl]-2-methylindazole-4-carbonitrile], the IC50 (GST-tagged SIK1) was 10.5 nM, the IC50 (GST-tagged SIK2) was 2.2 nM and the IC50 (GST-tagged SIK3) was 8.6 nM.

For `COc1cc(-c2c3c(C#N)cc(-c4cnn(C[C@H](C)O)c4)cc3nn2C)cc2c1C(=O)NCC2(C)C` [Example 144, 6-[1-[(2S)-2-hydroxypropyl]pyrazol-4-yl]-3-(8-methoxy-4,4-dimethyl-1-oxo-2,3-dihydroisoquinolin-6-yl)-2-methylindazole-4-carbonitrile], the IC50 (GST-tagged SIK1) was 10.1 nM, the IC50 (GST-tagged SIK2) was 3.7 nM and the IC50 (GST-tagged SIK3) was 7.8 nM.

`COc1cc(-c2c3c(OCCO)cc(-c4cnn(C)c4)cc3nn2C)cc(OC(F)F)c1C(N)=O` [Example 145, 2-(difluoromethoxy)-4-[4-(2-hydroxyethoxy)-2-methyl-6-(1-methylpyrazol-4-yl)indazol-3-yl]-6-methoxybenzamide] gave an IC50 (GST-tagged SIK1) of 10.3 nM, an IC50 (GST-tagged SIK2) of 1.8 nM and an IC50 (GST-tagged SIK3) of 19.1 nM.
